The source of these data is patent publication US8513446B2, “Stable crystal modifications of DOPC” (Merck Patent GmbH, priority 2008, dated 2013).

For series [1] the following is noted: stored under a protective gas at −20° C.; cited from earlier work.
Series [2] in a line: Storage stability of crystalline DOPC, residual content by HPLC. Type of series: physicochemical. The conditions noted are these: exclusion of air. The protocol: In order to determine the stability of crystalline DOPC, the substances are stored together with comparative samples at 25° C. and 60% relative humidity and at 40° C. and 75% relative humidity with exclusion of air. The residual content of DOPC is measured at periodic intervals and indicated compared with the initial value. Purity and content of DOPC are determined by HPLC. For the type I crystal modification, the following values were found: […]

Series [3] in a line: Hygroscopicity of solid DOPC. Type of series: physicochemical. The text has this: In addition, waxy DOPC can only be comminuted with difficulty and, like lyophilised DOPC, can only be weighed out with difficulty. This makes handling of this compound much more difficult.
Setting [4] is: 25° C./60% relative humidity, storage time 0 months.
Where [5] appears, read: 25° C./60% relative humidity, storage time 3 months.
Where [6] appears, read: 25° C./60% relative humidity, storage time 6 months.
The mark [7] stands for this setting: 25° C./60% relative humidity, storage time 9 months.
The mark [8] stands for this setting: 25° C./60% relative humidity, storage time 12 months.
The mark [9] stands for this setting: 25° C./60% relative humidity, storage time 18 months.
Where [10] appears, read: 40° C./75% relative humidity, storage time 0 months.
[11] abbreviates: 40° C./75% relative humidity, storage time 3 months.
The mark [12] stands for this setting: 40° C./75% relative humidity, storage time 6 months.
The mark [13] stands for this setting: 40° C./75% relative humidity, storage time 9 months.
The mark [14] stands for this setting: 40° C./75% relative humidity, storage time 12 months.

Take `CCCCCCCC/C=C\CCCCCCCC(=O)OC[C@H](COP(=O)([O-])OCC[N+](C)(C)C)OC(=O)CCCCCCC/C=C\CCCCCCCC` [lyophilised DOPC]: the guaranteed shelf life entry in series [1] is “about 12 months”.

Turning to `CCCCCCCC/C=C\CCCCCCCC(=O)OC[C@H](COP(=O)([O-])OCC[N+](C)(C)C)OC(=O)CCCCCCC/C=C\CCCCCCCC` [type I crystalline (R)-DOPC, 1,2-dioleoyl-sn-glycero-3-phosphocholine], the “purity of DOPC (HPLC) compared with the initial value” in series [2] (setting [4]) is reported as 100.0 Area-%; in series [2] (setting [5]), 100.0 Area-%; in series [2] (setting [6]) it was 100.0 Area-%; in series [2] (setting [7]), 100.0 Area-%; in series [2] (setting [8]) it was 99.7 Area-%; in series [2] (setting [9]), 99.8 Area-%. Also, the “purity of DOPC (HPLC) compared with the initial value” was 100.0 Area-% in series [2] (setting [10]); 99.9 Area-% in series [2] (setting [11]); 99.8 Area-% in series [2] (setting [12]); 99.8 Area-% in series [2] (setting [13]); 99.7 Area-% in series [2] (setting [14]). Besides, the “residual content of DOPC compared with the initial value” in series [2] (setting [4]) was found to be 100.0 % by weight; in series [2] (setting [5]) it was 100.9 % by weight; in series [2] (setting [6]), 99.3 % by weight; in series [2] (setting [7]), 100.8 % by weight; in series [2] (setting [8]), 100.4 % by weight; in series [2] (setting [9]) it was 100.6 % by weight. The “residual content of DOPC compared with the initial value” worked out at 100.0 % by weight in series [2] (setting [10]); 100.0 % by weight in series [2] (setting [11]); 98.4 % by weight in series [2] (setting [12]); 99.8 % by weight in series [2] (setting [13]); 99.5 % by weight in series [2] (setting [14]).

`CCCCCCCC/C=C\CCCCCCCC(=O)OC[C@H](COP(=O)([O-])OCC[N+](C)(C)C)OC(=O)CCCCCCC/C=C\CCCCCCCC` [amorphous DOPC, reference compound]: in series [3], the hygroscopicity entry is “extremely hygroscopic”.

Turning to `CCCCCCCC/C=C\CCCCCCCC(=O)OC[C@H](COP(=O)([O-])OCC[N+](C)(C)C)OC(=O)CCCCCCC/C=C\CCCCCCCC` [Crystalline DOPC], in series [3], the hygroscopicity result is given as “improved hygroscopicity”.
